In paper PMC11040934, “PI3Kγδ inhibition suppresses key disease features in a rat model of asthma” (Respiratory Research, 2024):
Where two headings read alike, the source gives them in different places.

What was measured:
[1] = tested on: JAK/STAT and NF-κB pathways; experiment: Rat model of allergic asthma: lung pSTAT3, pSTAT5a,b and NF-κB p65, pathway specificity; format: in vivo, Brown Norway rat; settings: i.t. 1 hr before OVA challenge; lung 2 hrs after challenge
[2] = tested on: Brown Norway rats, OVA sensitised and challenged; experiment: Rat model of allergic asthma: BAL cellular inflammation; format: in vivo, Brown Norway rat; settings: BAL 24 hrs after OVA challenge; i.t. dosing
Experimental: (§1) Male, adult, Brown Norway rats were obtained from Charles River Germany at a body weight range of 250-300 g. Animals were housed in temperature controlled individually ventilated cages in groups of 4 with food and water provided ad libitum. Animals underwent acclimatisation for at least 1 week prior to experimentation. Experiments were performed in accordance with the UK Home Office guidelines for animal welfare based on the Animals (Scientific Procedures) Act of 1986 and the ARRIVE guidelines (Fig. E2).
Initially a time course study was performed, followed by a characterisation study with compound & clinical comparator. For both studies, rats were sensitised on day 0, 14 and 21 by an intraperitoneal (i.p.) injection of 4 mL/kg (1 mL/rat) of ovalbumin (OVA;100 μg/rat) in Imject™ Alum (20 mg/rat aluminium hydroxide and 20 mg/rat magnesium hydroxide) or sham sensitised (Saline [Sal] in Imject™ Alum). On day 28 rats were challenged with 1% (w/v) aerosolised OVA in isotonic saline, or sham challenged with isotonic saline (30 mins).
Following blood collection, rats underwent tracheostomy and were cannulated. Rats were lavaged and bronchoalveolar lavage (BAL) fluid was collected (2 × 3 mL RPMI, 30 secs, 70% vol. retained). Slides were prepared using 100 μL of neat BAL, centrifuged (700 rpm, 5 mins, RT, low acceleration; Cytospin 2, Shandon, Runcorn, UK). 800 μL of neat BAL was collected and centrifuged (800×g, 10 mins, 4 °C). Supernatant was collected and stored (− 80 °C), and cell pellet was resuspended (200 μL, RPMI), total leukocytes were attained using a Sysmex XP-300 automated cell counter (Sysmex Ltd., Milton Keynes, UK). Remaining BAL was centrifuged (800×g, 10 mins, 4 °C) and supernatant collected and stored (− 80 °C).
BAL cytospin slides were placed in an automated stainer (Hematek 2000, Ames. Co., USA) and stained with a Modified-Wright stain (Siemens, Germany). Differential cell counts using a light microscope were performed based on morphological criteria were performed to determine percentages of macrophages/monocytes, lymphocytes, neutrophils & eosinophils. Total numbers of each distinct cell type were determined based on total leukocyte numbers.

[3] = molecular target: rat PI3Kγ (Rattus norvegicus, UniProt D3ZFJ0); experiment: PI3K γ assay: CXCL1/CINC-1-stimulated CD11b expression on rat whole blood neutrophils (FACS); format: cell-based; settings: mean ± SEM, n = 3
Experimental: PI3K γ assay: whole blood from male Sprague Dawley rat was collected in heparin coated tubes and pre-treated (1 hr., 37 °C, 5% CO2) with vehicle DMSO or PI3K inhibitors followed by stimulation with Rat CXCL1/CINC-1 (515-CN-050, R&D) at 500 ng/mL (EC80 determined in house; 1 hr., RT). Next, cells were stained with Fc block (550,273, BD bioscience, 1:100; 20 mins, RT), CD45R-B220-PeCy7 (HIS24) (25–0460-82, eBioscience, 1:100), CD43-PE (W3/13) (202,812, Biolegend, 1:100), HIS48-FITC (11–0570-82, eBioscience, 1:100), CD11b-APC (562,102, BD Bioscience, 1:100). Cells were lysed and fixed with BD FACS lysing solution (349,202, BD Biosciences; 45 mins, RT) before FACS acquisition (BD LSRFortessa™). Data were analysed using FlowJo 9.9 software (TreeStar). FACS gating strategy: lymphocytes (FSC-A vs SSC-A), doublets exclusion (FSC-W vs FSC-H), neutrophil identification B220-, HIS48hi, CD43hi, SSC-Ahi, geom. MFI for CD11b on neutrophils. IC50 values were determined in Graph Pad through a nonlinear fit on log transform data: log inhibitor vs response, variable slope, 4 parameters. Fraction unbound in diluted whole blood is calculated using the following equation: fu^′=DF·fub/1+DF-1·fub where fu’ is the fraction unbound in diluted whole blood; fub is the fraction unbound in undiluted whole blood; DF is the dilution factor. Fraction unbound in 100% whole blood (fub) is calculated as fup/BP, where fup is the experimentally determined fraction unbound in undiluted plasma and BP is the experimentally determined blood to plasma partition ratio of drug Table 1.

[4] = tested on: PI3K pathway (pAkt); experiment: Rat model of allergic asthma: lung tissue pAkt (T308), target engagement; format: in vivo, Brown Norway rat; settings: i.t. 1 hr before OVA challenge; AZD8154 0.02, 0.1, 0.3 mg/kg, budesonide 3 mg/kg; lung 2 hrs after challenge
Experimental: as §1
Initially a time course study was performed, followed by a characterisation study with compound & clinical comparator. […]
5 μL of supernatant (1:50 dilution) was taken for Bradford Assay which was run according to manufacturers’ instructions (BioRad, USA). […] Absorbance was measured using a spectrophotometer and total protein values interpolated to standard curve (595 nm; Spectromax, UK).
10 μg of protein from lung tissue extract were utilized in pAkt (T308); pSTAT3, pSTAT4 & STAT5a, b (Phospho-STAT Panel kit) MSD Assay plates (Meso Scale Delivery, USA) and run according to manufacturers’ instructions. Arbitrary electrochemiluminescence signals were read, the blank subtracted and values determined in each plate using a MSD S-Plex plate reader (Meso Scale Delivery, USA).

rat PI3Kγ, sequence (D3ZFJ0 1-1102): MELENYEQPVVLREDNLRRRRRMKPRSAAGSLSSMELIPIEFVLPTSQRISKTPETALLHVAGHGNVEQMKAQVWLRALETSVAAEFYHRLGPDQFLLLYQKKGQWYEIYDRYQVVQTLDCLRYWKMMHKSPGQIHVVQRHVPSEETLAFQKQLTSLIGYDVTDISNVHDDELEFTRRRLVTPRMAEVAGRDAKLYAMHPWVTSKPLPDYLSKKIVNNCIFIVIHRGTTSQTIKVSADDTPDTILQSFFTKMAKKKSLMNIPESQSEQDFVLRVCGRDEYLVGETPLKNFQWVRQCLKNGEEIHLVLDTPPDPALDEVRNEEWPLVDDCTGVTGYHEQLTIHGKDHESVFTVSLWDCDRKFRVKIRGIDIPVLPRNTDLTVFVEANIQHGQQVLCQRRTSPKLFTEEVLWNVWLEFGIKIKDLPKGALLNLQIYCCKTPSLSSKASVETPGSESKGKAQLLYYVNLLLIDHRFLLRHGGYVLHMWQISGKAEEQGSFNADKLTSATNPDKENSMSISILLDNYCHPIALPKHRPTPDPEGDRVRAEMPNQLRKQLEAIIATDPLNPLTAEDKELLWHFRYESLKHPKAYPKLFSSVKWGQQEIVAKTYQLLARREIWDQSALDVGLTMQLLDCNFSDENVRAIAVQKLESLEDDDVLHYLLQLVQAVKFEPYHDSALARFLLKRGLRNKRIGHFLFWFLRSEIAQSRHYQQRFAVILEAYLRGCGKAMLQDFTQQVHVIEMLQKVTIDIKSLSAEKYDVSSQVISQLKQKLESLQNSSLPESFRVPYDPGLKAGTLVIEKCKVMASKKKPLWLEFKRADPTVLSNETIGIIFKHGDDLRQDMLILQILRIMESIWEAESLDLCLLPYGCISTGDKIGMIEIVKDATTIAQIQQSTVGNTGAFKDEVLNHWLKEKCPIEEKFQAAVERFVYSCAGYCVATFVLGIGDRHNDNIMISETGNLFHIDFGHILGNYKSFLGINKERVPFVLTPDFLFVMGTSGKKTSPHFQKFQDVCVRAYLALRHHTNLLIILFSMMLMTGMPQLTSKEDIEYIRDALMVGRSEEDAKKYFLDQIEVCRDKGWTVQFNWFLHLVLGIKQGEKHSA

IC50 ([3]; CD11b expression on neutrophils, read-out: rat γ total IC50): 28.7 ± 4.1 nM | IC50 ([3]; corrected for protein binding in the assay, read-out: rat γ free IC50): 0.54 ± 0.08 nM
Structure (SMILES): Cc1nc(Nc2cccc(N3CCCC3=O)n2)sc1-c1cc2c(c(S(C)(=O)=O)c1)C(=O)N([C@@H](C)C1CC1)C2 [AZD8154]
JAK/STAT pathway (pSTAT3, pSTAT5a,b) in lung tissue [1]: minimal impact | NF-κB pathway (NF-κB p65) in lung nuclear extract [1]: minimal impact | BAL eosinophils [2]: statistically significant decrease | BAL neutrophils [2]: statistically significant decrease | lung tissue pAkt levels [4]: dose related suppression
